Where “and” joins values, the source holds several entries; their conditions need not be identical. Equal entries are not always repeated.
Columns and labels:
[1] = test system: oseltamivir-resistant HK/09-H275Y influenza; format: cell-based, influenza A virus H1N1
[2] = test system: mixture of 99% MX/09 and 1% oseltamivir-resistant HK/09-H275Y; format: cell-based, influenza A virus H1N1
[3] = biological target: neuraminidase of oseltamivir-resistant pandemic 2009 H1N1 A/Hong Kong/2369/2009 [H275Y] (HK/09-H275Y) (Influenza A virus, UniProt C6KQ69); experiment: biochemical; format: biochemical
[4] = test system: HK/09-H275Y subpopulation in 99% MX/09 + 1% HK/09-H275Y infection; format: cell-based, influenza A virus H1N1
[5] = biological target: neuraminidase of zanamivir-resistant seasonal 2008 H1N1 A/Brazil/1633/2008 [Q136K] (BZ/08-Q136K) (Influenza A virus, UniProt A4GBY0, Q136K); format: biochemical

| Compound | reduction of peak viral titers [1] | viral burden lower than the no-treatment control [2] | IC50 [3] [pM] | HK/09-H275Y subpopulations [4] | IC50 values (95% Confidence Interval) [5] | effect on viral burden relative to no-treatment control [2] | IC50 values (95% Confidence Interval) [3] |
| --- | --- | --- | --- | --- | --- | --- | --- |
| CC(=O)N[C@H]1[C@H]([C@H](O)[C@H](O)CO)OC(C(=O)O)=C[C@@H]1N=C(N)N [Zanamivir, zanamivir] | approximately 4 log10 PFU/ml | at least 2 log10 | 7.22 | – | – | – | – |
| Oseltamivir carboxylate | – | – | – | 76% and 83% | 0.0028 (0.0005 – 0.0051) ng/ml | peak viral load equivalent to that of the no-treatment control by 72 h | 15.30 (10.16 – 20.44) ng/ml |

Reference: article PMC5694373 (European journal of pharmaceutical sciences : official …, 2017)
